The values below come from paper PMC7764985 (2020).

For test [1], the system named is FB1_39t3 (DNA, aptamer) ATACCAGCTTATTCAATTAATCGCATTACCTTATACCAGCTTATTCAATTACGTCTGCACATACCAGCTTATTCAATT
As to the kind of experiment: magnetic beads assay, fluorescence. The following applies: 100 mM NaCl, 2 mM MgCl2, 5 mM KCl, 1 mM CaCl2; immobilised compound; 20 mM Tris, pH 7.6, room temperature; aptamer up to 2000 nM.

Test [2] has as its system FB1_10 (DNA, aptamer) AGCAGCACAGAGGTCAGATGCGATCTGGATATTATTTTTGATACCCCTTTGGGGAGACATCCTATGCGTGCTACCGTGAA
As to the kind of experiment: magnetic beads assay, fluorescence. The settings on record: 100 mM NaCl, 2 mM MgCl2, 5 mM KCl, 1 mM CaCl2; immobilised compound; 20 mM Tris-HCl, 0.02% Tween 20, pH 7.4, room temperature; aptamer up to 2000 nM.

In test [3] the test system is FB1_39t3 (DNA, aptamer) ATACCAGCTTATTCAATTAATCGCATTACCTTATACCAGCTTATTCAATTACGTCTGCACATACCAGCTTATTCAATT
As to the kind of experiment: microscale thermophoresis. The settings on record: 100 mM NaCl, 2 mM MgCl2, 5 mM KCl, 1 mM CaCl2; 20 mM Tris, pH 7.6, 25 °C; 5 nM aptamer. A general note: Microscale thermophoresis detects binding through changes in fluorescence in a small temperature gradient.

In test [4] the test system is FB1_39 (DNA, aptamer) ATACCAGCTTATTCAATTAATCGCATTACCTTATACCAGCTTATTCAATTACGTCTGCACATACCAGCTTATTCAATTAGATAGTAAGTGCAATCT
As to the kind of experiment: microscale thermophoresis. The settings on record: 100 mM NaCl, 2 mM MgCl2, 5 mM KCl, 1 mM CaCl2; 20 mM Tris, pH 7.6, 25 °C; 5 nM aptamer.

Test [5] relates to FB1_10 (DNA, aptamer) AGCAGCACAGAGGTCAGATGCGATCTGGATATTATTTTTGATACCCCTTTGGGGAGACATCCTATGCGTGCTACCGTGAA
As to the kind of experiment: microscale thermophoresis. The following applies: 100 mM NaCl, 2 mM MgCl2, 5 mM KCl, 1 mM CaCl2; 20 mM Tris-HCl, 0.02% Tween 20, pH 7.4, 25 °C; 5 nM aptamer.

In test [6] the test system is FB1_39 (DNA, aptamer) ATACCAGCTTATTCAATTAATCGCATTACCTTATACCAGCTTATTCAATTACGTCTGCACATACCAGCTTATTCAATTAGATAGTAAGTGCAATCT
As to the kind of experiment: magnetic beads assay, fluorescence. The settings on record: 100 mM NaCl, 2 mM MgCl2, 5 mM KCl, 1 mM CaCl2; immobilised compound; 20 mM Tris, pH 7.6, room temperature; aptamer 0.5-100 nM.

`CCCC[C@@H](C)[C@@H](OC(=O)C[C@@H](CC(=O)O)C(=O)O)[C@H](C[C@@H](C)C[C@H](O)CCCC[C@@H](O)C[C@H](O)[C@H](C)N)OC(=O)C[C@@H](CC(=O)O)C(=O)O`: the binding result in test [1] and in test [2] was “no” throughout. Also, the KD in test [3] is 2200 ± 1100 nM; in test [4], 31 ± 22 nM; in test [5], 162 ± 137 nM; in test [6] it was 1.53 ± 0.67 nM.

A word on the KD: it is a measure of binding affinity in units of concentration. Read a high KD as weaker binding.
